Patent US5545639A, “Method of inhibiting transformed cells” (The United States of America as represented by the …, priority 1994, dated 1996)

Assays:
Experiment in all cases: Dose response of growth, tumor cell line
Format in all cases: cell-based
DMS 273 = settings: Homo sapiens, DMS 273, small cell lung cancer
DMS 114 = settings: Homo sapiens, DMS 114, small cell lung cancer
Protocol: (§1) Indeed, 70% of the cell lines were shown not only to experience precluded growth, but cell death, when exposed to less then 100 μM of the active ingredient.

EKVX = settings: Homo sapiens, non-small cell lung cancer
Protocol: as §1

HCC-2998 = settings: Homo sapiens, HCC-2998, colon cancer
Protocol: as §1

HCT-15 = settings: Homo sapiens, HCT-15, colon cancer
Protocol: as §1

HL-60 (TB) = settings: Homo sapiens, leukemia
Protocol: as §1

HOP-62 = settings: Homo sapiens, HOP-62, non-small cell lung cancer
Protocol: as §1

KM20L2 = settings: Homo sapiens, KM-20L2, KM20L2, colon cancer
Protocol: as §1

MALME-3M = settings: Homo sapiens, melanoma
Protocol: as §1

MCF7/ADR-RES = settings: Homo sapiens, miscellaneous
Protocol: as §1

MOLT-4 = settings: Homo sapiens, MOLT-4, leukemia
Protocol: as §1

NCI-H226 = settings: Homo sapiens, NCI-H226, non-small cell lung cancer
Protocol: as §1

NCI-H23 = settings: Homo sapiens, NCI-H23, non-small cell lung cancer
Protocol: as §1

NCI-H322M = settings: Homo sapiens, non-small cell lung cancer
Protocol: as §1

NCI-H522 = settings: Homo sapiens, NCI-H522, non-small cell lung cancer
Protocol: as §1

OVCAR-4 = settings: Homo sapiens, OVCAR-4, ovarian cancer
Protocol: as §1

SF-268 = settings: Homo sapiens, SF-268, CNS cancer
Protocol: as §1

SF-539 = settings: Homo sapiens, SF-539, CNS cancer
Protocol: as §1

SK-MEL-2 = settings: Homo sapiens, SK-MEL-2, melanoma
Protocol: as §1

SK-MEL-5 = settings: Homo sapiens, SK-MEL-5, melanoma
Protocol: as §1

SK-OV-3 = settings: Homo sapiens, SK-OV-3, ovarian cancer
Protocol: as §1

SNB-75 = settings: Homo sapiens, SNB-75, CNS cancer
Protocol: as §1

SW-620 = settings: Homo sapiens, SW-620, colon cancer
Protocol: as §1

UACC-62 = settings: Homo sapiens, UACC-62, melanoma
Protocol: as §1

XF 498 = settings: Homo sapiens, XF498, XF 498, CNS cancer
Protocol: as §1

[1] = read-out: 50% Growth (Relative to Control)
[2] = read-out: No Growth (Relative to Control)

## ClCc1ccc2ccc3ccc(CCl)nc3c2n1 [2,9-bis(chloromethyl)-1,10-phenanthroline]
DMS 273; [1]
  IC50: 2.84 µM
DMS 273; [2]
  IC100: > 100 µM
DMS 114; [1]
  IC50: 1.62 µM
DMS 114; [2]
  IC100: 3.53 µM
EKVX; [1]
  IC50: 28.1 µM
EKVX; read-out: 50% Loss (50% kill)
  CC50: > 100 µM
EKVX; [2]
  IC100: > 100 µM
HCC-2998; [1]
  IC50: 1.56 µM
HCC-2998; read-out: 50% Loss (50% kill)
  CC50: 6.18 µM
HCC-2998; [2]
  IC100: 3.11 µM
HCT-15; [1]
  IC50: 1.95 µM
HCT-15; read-out: 50% Loss (50% kill)
  CC50: > 100 µM
HCT-15; [2]
  IC100: 6.47 µM
HL-60 (TB); [1]
  IC50: 1.8 µM
HL-60 (TB); read-out: 50% Loss (50% kill)
  CC50: 23 µM
HL-60 (TB); [2]
  IC100: 4.43 µM
HOP-62; [1]
  IC50: 2.29 µM
HOP-62; read-out: 50% Loss (50% kill)
  CC50: 19.2 µM
HOP-62; [2]
  IC100: 5.3 µM
KM20L2; [1]
  IC50: 2.72 µM
KM20L2; read-out: 50% Loss (50% kill)
  CC50: 28.3 µM
KM20L2; [2]
  IC100: 7.21 µM
MALME-3M; [1]
  IC50: 1.89 µM
MALME-3M; read-out: 50% Loss (50% kill)
  CC50: 6.16 µM
MALME-3M; [2]
  IC100: 3.41 µM
MCF7/ADR-RES; [1]
  IC50: 1.93 µM
MCF7/ADR-RES; read-out: 50% Loss (50% kill)
  CC50: > 100 µM
MCF7/ADR-RES; [2]
  IC100: 4.48 µM
MOLT-4; [1]
  IC50: 1.73 µM
MOLT-4; read-out: 50% Loss (50% kill)
  CC50: 9.34 µM
MOLT-4; [2]
  IC100: 4.02 µM
NCI-H226; [1]
  IC50: 3.06 µM
NCI-H226; read-out: 50% Loss (50% kill)
  CC50: 68.3 µM
NCI-H226; [2]
  IC100: 9.91 µM
NCI-H23; [1]
  IC50: 1.87 µM
NCI-H23; read-out: 50% Loss (50% kill)
  CC50: 7.24 µM
NCI-H23; [2]
  IC100: 3.68 µM
NCI-H322M; [1]
  IC50: 2.84 µM
NCI-H322M; read-out: 50% Loss (50% kill)
  CC50: 29.2 µM
NCI-H322M; [2]
  IC100: 8.41 µM
NCI-H522; [1]
  IC50: 1.76 µM
NCI-H522; read-out: 50% Loss (50% kill)
  CC50: 6.71 µM
NCI-H522; [2]
  IC100: 3.44 µM
OVCAR-4; [1]
  IC50: 3.15 µM
OVCAR-4; read-out: 50% Loss (50% kill)
  CC50: 34.9 µM
OVCAR-4; [2]
  IC100: 9.37 µM
SF-268; [1]
  IC50: 1.79 µM
SF-268; [2]
  IC100: 3.74 µM
SF-539; [1]
  IC50: 2.99 µM
SF-539; read-out: 50% Loss (50% kill)
  CC50: 41.8 µM
SF-539; [2]
  IC100: 11.2 µM
SK-MEL-2; [1]
  IC50: 1.77 µM
SK-MEL-2; read-out: 50% Loss (50% kill)
  CC50: 16.6 µM
SK-MEL-2; [2]
  IC100: 4.81 µM
SK-MEL-5; [1]
  IC50: 1.59 µM
SK-MEL-5; read-out: 50% Loss (50% kill)
  CC50: 9.45 µM
SK-MEL-5; [2]
  IC100: 3.88 µM
SK-OV-3; [1]
  IC50: 8.9 µM
SK-OV-3; read-out: 50% Loss (50% kill)
  CC50: > 10 µM
SK-OV-3; [2]
  IC100: > 10 µM
SNB-75; [1]
  IC50: 1.72 µM
SNB-75; read-out: 50% Loss (50% kill)
  CC50: 15.5 µM
SNB-75; [2]
  IC100: 4.53 µM
SW-620; [1]
  IC50: 3.18 µM
SW-620; read-out: 50% Loss (50% kill)
  CC50: > 100 µM
SW-620; [2]
  IC100: 14.1 µM
UACC-62; [1]
  IC50: 1.18 µM
UACC-62; read-out: 50% Loss (50% kill)
  CC50: 5.07 µM
UACC-62; [2]
  IC100: 2.45 µM
XF 498; [1]
  IC50: 1.72 µM
XF 498; read-out: 50% Loss (50% kill)
  CC50: > 100 µM
XF 498; [2]
  IC100: 5.63 µM
